Where “and” joins values, the source holds several entries; their conditions need not be identical. Equal entries are not always repeated.
Test system: 485176-168-R4-J1-PDC spheroids with HUVEC/MSC, viability
Assay: Anticancer human tumor 485176-168-R4-J1-PDC patient-derived pancreatic adenocarcinoma cell line growth inhibition [GQUAD]
Conditions: for viability, T/C: stronger effect = lower value; active = viability on the fitted dose curve at most 10% of control; inactive = the rest
Excerpt: DNA G-quadruplex Stabilizer Agents in Combinations in Complex Spheroids
A high-throughput screen of multi-cell type tumor spheroids was designed to identify active combinations of DNA G-quadruplex stabilizer agents and targeted small molecules. Complex spheroids include a stromal component modeled by human endothelial cells (HUVEC) and fibroblasts modeled by human mesenchymal stem cells (MSCs). The concentration ranges selected for each drug and investigational agent were based upon clinically achievable concentrations if the clinical Cmax of the agent was known.
Compounds. The drugs and investigational agents: pidnarulex (CX-5461; NSC782164), APTO-253 (NSC789042), BRACO-19 (NSC847499), peposertib (NSC802822), ceralasertib (NSC780249), elimusertib (NSC800525), camonsertib (NSC841442), AZD-1390 (NSC803789), olaparib (NSC753686), talazoparib (NSC767125), ART-558 (NSC835418), sotorasib (NSC818433), MRTX-1133 (NSC836407), SN-38 (NSC673596), topotecan (NSC609699), etoposide (NSC141540), doxorubicin (NSC123127), gemcitabine (NSC613327), 5-fluorouracil (NSC19893), paclitaxel (NSC125973), vemurafenib (NSC761431), panobinostat (NSC761190), R-306465 (JNJ-16241199; NSC773264), adavosertib (NSC754352), TP-3654 (NSC805149), carboplatin (NSC241240), KSQ-4279 (NSC840948), and staurosporine (NSC755774) were obtained from the National Cancer Institute (NCI) Developmental Therapeutics Program Chemical Repository (34). The FDA-approved anticancer drug set is available from the NCI Developmental Therapeutics Program. […] The stock solutions were prepared in dimethyl sulfoxide (DMSO, Sigma-Aldrich, St. Louis, MO, cat. D2650) at 800-fold the tested concentration and stored at -70 degrees C prior to their use. All drugs and investigational agents were tested over a range starting from a high concentration at or near the clinical Cmax and decreasing in half-log increments. If the clinical Cmax for an agent had not been determined, the highest concentration tested was 10 microM.
2.3 Cell Culture. All cells were maintained in an incubator at 37 degrees C and 5% CO2 with 95% humidity. The PDC lines were cultured according to standard operating procedures established by the NCI PDMR. All PDCs were thawed and cultured in Matrigel-coated flasks prepared with a working solution of 1X Ham's F-12 nutrient mix, without supplementation (Invitrogen, cat. 11765054), 100 U/mL penicillin-streptomycin (Invitrogen, cat. 15140122), and 2.5% Matrigel (Corning Inc., cat. 354248) for the first three passages. The 857933-349-R-J2-PDC line was cultured in 6C/Colon 1B media, which includes advanced DMEM/F-12 (Thermo Fisher Scientific, cat. 12634028), 10 mM HEPES (Thermo Fisher Scientific, cat. 15630080), 1X GlutaMAX supplement (Thermo Fisher Scientific, cat. 35050061), 0.1 mg/mL primocin (InvivoGen, cat. ant-pm-2), 10% defined fetal bovine serum, heat inactivated (HyClone Laboratories Inc., cat. SH30070.03HI), 50% L-WRN conditioned media (ATCC, cat. CRL-3276), 1.25 mM N-Acetyl-L-cysteine (Sigma-Aldrich, cat. A9165), 10 mM nicotinamide (Sigma-Aldrich, cat. N0636), 1X B-27 supplement (Thermo Fisher Scientific, cat. 17504044), 1X N-2 supplement (Thermo Fisher Scientific, cat. 17502048), 10 microM Y-27632 dihydrochloride (Tocris Bioscience, cat. 1254), and 50 ng/mL human EGF recombinant protein (Thermo Fisher Scientific, cat. PHG0311). The 485176-168-R4-J1-PDC line was cultured in Panc media, which includes all 6C/Colon 1B media components plus 100 ng/mL human FGF-10 (Thermo Fisher Scientific, cat. 100-26), 500 nM SB-431542 (Selleckchem, cat. S1067), and gastrin (Tocris, cat. 3006).
[…]

[1] = curve of first compound, second compound 0.0316 µM
[2] = curve of first compound, second compound 0.1 µM
[3] = curve of first compound, second compound 0.316 µM
[4] = curve of first compound, second compound 1 µM
[5] = curve of first compound, second compound 3.16 µM
[6] = curve of first compound, second compound 10 µM
[7] = second compound 0.0316 µM, first compound 0.0316 µM
[8] = second compound 0.0316 µM, first compound 0.1 µM
[9] = second compound 0.0316 µM, first compound 0.316 µM
[10] = second compound 0.0316 µM, first compound 1 µM
[11] = second compound 0.0316 µM, first compound 3.16 µM
[12] = second compound 0.0316 µM, first compound 10 µM
[13] = second compound 0.1 µM, first compound 0.0316 µM
[14] = second compound 0.1 µM, first compound 0.1 µM
[15] = second compound 0.1 µM, first compound 0.316 µM
[16] = second compound 0.1 µM, first compound 1 µM
[17] = second compound 0.1 µM, first compound 3.16 µM
[18] = second compound 0.1 µM, first compound 10 µM
[19] = second compound 0.316 µM, first compound 0.0316 µM
[20] = second compound 0.316 µM, first compound 0.1 µM
[21] = second compound 0.316 µM, first compound 0.316 µM
[22] = second compound 0.316 µM, first compound 1 µM
[23] = second compound 0.316 µM, first compound 3.16 µM
[24] = second compound 0.316 µM, first compound 10 µM
[25] = second compound 1 µM, first compound 0.0316 µM
[26] = second compound 1 µM, first compound 0.1 µM
[27] = second compound 1 µM, first compound 0.316 µM
[28] = second compound 1 µM, first compound 1 µM
[29] = second compound 1 µM, first compound 3.16 µM
[30] = second compound 1 µM, first compound 10 µM
[31] = second compound 3.16 µM, first compound 0.0316 µM
[32] = second compound 3.16 µM, first compound 0.1 µM
[33] = second compound 3.16 µM, first compound 0.316 µM
[34] = second compound 3.16 µM, first compound 1 µM
[35] = second compound 3.16 µM, first compound 3.16 µM
[36] = second compound 3.16 µM, first compound 10 µM
[37] = second compound 10 µM, first compound 0.0316 µM
[38] = second compound 10 µM, first compound 0.1 µM
[39] = second compound 10 µM, first compound 0.316 µM
[40] = second compound 10 µM, first compound 1 µM
[41] = second compound 10 µM, first compound 3.16 µM
[42] = second compound 10 µM, first compound 10 µM
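Note: spheroids exposed to compounds for seven days before readout.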
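Throughout, for viability, T/C: percent viability relative to DMSO vehicle control wells as 100%.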

CC1COCCN1c1cc(-c2ccnn2C)c2ccnc(-c3ccn[nH]3)c2n1 (stereo not given) + Cc1[nH]c2ccc(F)cc2c1-c1nc2c3cccnc3c3ncccc3c2[nH]1
0.062 µM: IC50 [1]
0.0572 µM: IC50 [4]
inactive: viability, T/C [7] 71.8% | viability, T/C [8] 34.2% | viability, T/C [9] 19.2% | viability, T/C [10] 10.6% | viability, T/C [11] 10.7% | viability, T/C [12] 11.7% | viability, T/C [13] 60.5% | viability, T/C [14] 48.3% | viability, T/C [15] 16.8% | viability, T/C [16] 10.9% | viability, T/C [17] 11.1% | viability, T/C [18] 13.2% | viability, T/C [19] 67% | viability, T/C [20] 45% | viability, T/C [21] 18.7% | viability, T/C [22] 10.4% | viability, T/C [23] 12.3% | viability, T/C [24] 11.3% | viability, T/C [25] 61.1% | viability, T/C [26] 39.5% | viability, T/C [27] 19.1% | viability, T/C [28] 10.3% | viability, T/C [31] 64.9% | viability, T/C [32] 40.6% | viability, T/C [33] 15.8% | viability, T/C [34] 9.36% | viability, T/C [35] 11.8% | viability, T/C [36] 12% | viability, T/C [37] 70.3% | viability, T/C [38] 40.7% | viability, T/C [39] 18.2% | viability, T/C [40] 10.9% | viability, T/C [41] 11.2% | viability, T/C [42] 11.4%
0.0771 µM: IC50 [3]
active: viability, T/C [29] 10.6% | viability, T/C [30] 9.82%
0.0642 µM: IC50 [5]
0.0698 µM: IC50 [6]
0.0854 µM: IC50 [2]

O=C(c1cc(Cc2n[nH]c(=O)c3ccccc23)ccc1F)N1CCN(C(=O)C2CC2)CC1
> 10 µM: IC50 (curve of compound)
inactive: viability, T/C (compound 0.0316 µM) 94.9% and 101% and 98% | viability, T/C (compound 0.1 µM) 100% and 97.5% and 90.3% | viability, T/C (compound 0.316 µM) 84.3% and 99.6% and 85.8% | viability, T/C (compound 1 µM) 89.3% and 98.4% and 81.9% | viability, T/C (compound 3.16 µM) 85.7% and 102% and 88.1% | viability, T/C (compound 10 µM) 80% and 77.6% and 68.8%

C=CC(=O)N1CCN(c2nc(=O)n(-c3c(C)ccnc3C(C)C)c3nc(-c4c(O)cccc4F)c(F)cc23)C(C)C1 (stereo not given)
inactive: viability, T/C (compound 0.0316 µM) 94.5% and 108% and 99.3% | viability, T/C (compound 0.1 µM) 80.1% and 83.2% and 93.6% | viability, T/C (compound 0.316 µM) 115% and 110% and 111% | viability, T/C (compound 1 µM) 91.1% and 122% and 103% | viability, T/C (compound 3.16 µM) 113% and 109% and 111% | viability, T/C (compound 10 µM) 96.8% and 114% and 107%
> 10 µM: IC50 (curve of compound)

COc1ccc([C@@H](O)c2cc(-c3ncnc4cc(N5CCOCC5)ccc34)c(F)cc2Cl)nn1 + CN(C)c1ccc(Nc2c3ccc(NC(=O)CCN4CCCC4)cc3nc3cc(NC(=O)CCN4CCCC4)ccc23)cc1
4.58 µM: IC50 [4]
4.75 µM: IC50 [2]
3.13 µM: IC50 [6]
4.12 µM: IC50 [5]
5.71 µM: IC50 [1]
4.76 µM: IC50 [3]
inactive: viability, T/C [7] 97.4% | viability, T/C [8] 96.6% | viability, T/C [9] 96.1% | viability, T/C [10] 82.3% | viability, T/C [11] 70.9% | viability, T/C [12] 31.4% | viability, T/C [13] 97.6% | viability, T/C [14] 98.4% | viability, T/C [15] 89.1% | viability, T/C [16] 80.5% | viability, T/C [17] 60.6% | viability, T/C [18] 30.7% | viability, T/C [19] 87% | viability, T/C [20] 92.2% | viability, T/C [21] 109% | viability, T/C [22] 75.6% | viability, T/C [23] 62.9% | viability, T/C [24] 30.6% | viability, T/C [25] 106% | viability, T/C [26] 91.8% | viability, T/C [27] 100% | viability, T/C [28] 84.1% | viability, T/C [29] 60.9% | viability, T/C [30] 27.1% | viability, T/C [31] 108% | viability, T/C [32] 107% | viability, T/C [33] 81.4% | viability, T/C [34] 74.9% | viability, T/C [35] 57.9% | viability, T/C [36] 31.8% | viability, T/C [37] 77.6% | viability, T/C [38] 87.5% | viability, T/C [39] 73.7% | viability, T/C [40] 61.9% | viability, T/C [41] 52.4% | viability, T/C [42] 23.8%

CC(C)n1c(=O)n(C)c2cnc3cc(F)c(-c4ccc(OCCCN5CCCCC5)nc4)cc3c21 + CN(C)c1ccc(Nc2c3ccc(NC(=O)CCN4CCCC4)cc3nc3cc(NC(=O)CCN4CCCC4)ccc23)cc1
5.42 µM: IC50 [6]
inactive: viability, T/C [7] 89.8% | viability, T/C [8] 81.3% | viability, T/C [9] 104% | viability, T/C [10] 89.7% | viability, T/C [11] 93.3% | viability, T/C [12] 71.7% | viability, T/C [13] 92.7% | viability, T/C [14] 91.1% | viability, T/C [15] 104% | viability, T/C [16] 95.7% | viability, T/C [17] 94.7% | viability, T/C [18] 68.4% | viability, T/C [19] 111% | viability, T/C [20] 90.4% | viability, T/C [21] 94.7% | viability, T/C [22] 98.2% | viability, T/C [23] 94.5% | viability, T/C [24] 82.1% | viability, T/C [25] 111% | viability, T/C [26] 95.9% | viability, T/C [27] 80.6% | viability, T/C [28] 79.7% | viability, T/C [29] 71.2% | viability, T/C [30] 77.8% | viability, T/C [31] 81.6% | viability, T/C [32] 91.7% | viability, T/C [33] 86.6% | viability, T/C [34] 85.2% | viability, T/C [35] 79.1% | viability, T/C [36] 59.9% | viability, T/C [37] 81.7% | viability, T/C [38] 65.7% | viability, T/C [39] 71.5% | viability, T/C [40] 64.5% | viability, T/C [41] 64.6% | viability, T/C [42] 36.3%
> 10 µM: IC50 [1] | IC50 [2] | IC50 [3] | IC50 [4] | IC50 [5]

Reference: PubChem BioAssay AID2060509 (Molecular Pharmacology Branch, DTP, NCI, 2025)
